How the values were obtained:
Type in all cases: physicochemical
[1] = thermodynamic based polymorph screen; conditions: for new crystal forms / polymorphs detected: besylate suspended in different solvents, three months
Experimental: A thermodynamic based polymorph screen was conducted with crystalline (1S,5S)-3-(5,6-dichloropyridin-3-yl)-3,6-diazabicyclo[3.2.0]heptane benzenesulfonate. The benzenesulfonate salt was suspended in different solvents including water, ethanol, acetonitrile, methanol, N,N-dimethylformamide, ethyl acetate, 1,4-dioxane, chloroform, pyridine, nitromethane, PEG 400 and […] water/methanol. […] This difference between the benzenesulfonate and 4-methylbenzenesulfonate salts is unexpected considering the structural similarities of the two acids. The lack of different physical forms is an advantage to chemical and physical processing operations.

[2] = intrinsic dissolution rate at 37° C.
[3] = solid state stability at 40° C. in the dark at 75% relative humidity; conditions: 75% RH
Experimental: Crystalline (1S,5S)-3-(5,6-dichloropyridin-3-yl)-3,6-diazabicyclo[3.2.0]heptane benzenesulfonate was tested for solid state stability at 40° C. in the dark at 75% relative humidity.

[4] = hygroscopicity (relative humidity adsorption/desorption isotherms); conditions: relative to acetate, citrate, maleate, methanesulfonate, 4-methylbenzenesulfonate and sulfate salts, FIGS. 1-7
Experimental: Relative humidity isotherms were collected using a VTI SGA-100 Symmetric Vapor Sorption Analyzer. About 2 to 30 mg of sample is added to the system. The relative humidity is held constant at each step until a constant weight equilibrium is achieved or a maximum of six hours per step.

SMILES: Cc1ccc(S(=O)(=O)O)cc1.Clc1cc(N2C[C@@H]3CN[C@@H]3C2)cnc1Cl [4-methylbenzenesulfonate salt, (1S,5S)-3-(5,6-dichloropyridin-3-yl)-3,6-diazabicyclo[3.2.0]heptane 4-methylbenzenesulfonate]
- unique crystal forms isolated/characterized [1]: three unique crystal forms
- new crystal forms / polymorphs detected [1]: multiple polymorphs were discovered

SMILES: Clc1cc(N2C[C@@H]3CN[C@@H]3C2)cnc1Cl.O=S(=O)(O)O [sulfate, (1S,5S)-3-(5,6-dichloropyridin-3-yl)-3,6-diazabicyclo[3.2.0]heptane sulfate]
- new crystal forms / polymorphs detected [1]: multiple polymorphs were discovered

SMILES: O=C(O)[C@H](O)[C@@H](O)C(=O)O [(L)-tartrate]
- new crystal forms / polymorphs detected [1]: multiple polymorphs were discovered

SMILES: Clc1cc(N2C[C@@H]3CN[C@@H]3C2)cnc1Cl.O=S(=O)(O)c1ccccc1 [(1S,5S)-3-(5,6-dichloropyridin-3-yl)-3,6-diazabicyclo[3.2.0]heptane Benzenesulfonate]
- intrinsic dissolution rate ([2]; pH 1.0): 8.5 mg/min·cm^2
- intrinsic dissolution rate ([2]; pH 6.8): 10.1 mg/min·cm^2
- unique crystal forms isolated/characterized [1]: only one
- new crystal forms / polymorphs detected [1]: No new crystal forms were detected
- % remaining ([3]; 0 week): 99.72 ± 0.56%
- % remaining ([3]; 1 week): 100.66 ± 0.51%
- % remaining ([3]; 2 week): 99.47 ± 1.72%
- % remaining ([3]; 4 week): 100.22 ± 0.59%
- % remaining ([3]; 6 week): 100.53 ± 0.20%
- % remaining ([3]; 8 week): 100.93 ± 0.37%
- % remaining ([3]; 12 week): 100.84 ± 0.47%
- hygroscopicity [4]: lower hygroscopicity relative to other salts

From patent US7902371B2, “(1S,5S)-3-(5,6-dichloropyridin-3-yl)-3,6-diazabicyclo[3.2.0]heptane benzenesulfonate” (Abbott Laboratories, priority 2004, dated 2011)
